Patent publication US11008317B2, “Triazolopyridine inhibitors of myeloperoxidase and/or EPX” (priority 2016, dated 2021)
pIC50: −log10 of the molar value.

Experiments:
myeloperoxidase [1] = target: T1, myeloperoxidase (Homo sapiens, UniProt P05164); experiment: MPO Peroxidation Assay (Amplex Red Assay); format: biochemical; settings: potency range class, read-out: Amplex Red Assay IC50 value
T1 sequence (P05164 49-745): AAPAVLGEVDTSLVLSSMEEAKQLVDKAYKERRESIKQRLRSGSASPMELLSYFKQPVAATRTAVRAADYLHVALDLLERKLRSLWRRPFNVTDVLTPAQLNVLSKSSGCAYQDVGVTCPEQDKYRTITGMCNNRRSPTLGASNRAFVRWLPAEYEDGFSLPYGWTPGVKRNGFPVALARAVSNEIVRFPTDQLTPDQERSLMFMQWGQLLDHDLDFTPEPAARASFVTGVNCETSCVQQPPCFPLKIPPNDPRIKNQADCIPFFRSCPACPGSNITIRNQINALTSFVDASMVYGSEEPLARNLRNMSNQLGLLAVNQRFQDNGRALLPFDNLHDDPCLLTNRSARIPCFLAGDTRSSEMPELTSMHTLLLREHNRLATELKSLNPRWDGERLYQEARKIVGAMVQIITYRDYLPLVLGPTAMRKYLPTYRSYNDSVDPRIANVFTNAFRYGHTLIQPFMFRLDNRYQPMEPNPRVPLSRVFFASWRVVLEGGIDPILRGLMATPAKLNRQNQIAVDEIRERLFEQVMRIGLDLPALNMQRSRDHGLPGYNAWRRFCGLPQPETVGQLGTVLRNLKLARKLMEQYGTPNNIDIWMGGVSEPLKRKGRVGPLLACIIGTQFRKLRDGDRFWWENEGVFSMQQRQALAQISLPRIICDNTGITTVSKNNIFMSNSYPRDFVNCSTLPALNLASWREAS

myeloperoxidase [2] = target: T1, myeloperoxidase; experiment: MPO Chlorination Assay (APF Assay); format: biochemical; settings: potency range class, read-out: APF Assay IC50 value

SMILES | pIC50 (myeloperoxidase [1]) | pIC50 (myeloperoxidase [2])
N#Cc1cccc(-c2cccc3[nH]c(C[C@H](c4ccccc4)c4cc(N)nc5[nH]nnc45)nc23)c1 [Example 252, (R)-3-(2-(2-(5-amino-3H-[1,2,3]triazolo [4,5-b]pyridin-7-yl)-2-phenylethyl)-1H-benzo[d]imidazol-4-yl)benzonitrile] | 5.00 to 6.00 | 7.00 to 9.00
Nc1cc([C@H](Cc2nc3c(-c4ccc(Cl)cc4)cccc3[nH]2)c2ccccc2)c2nn[nH]c2n1 [Example 253, (R)-7-(2-(4-(4-chlorophenyl)-1H-benzo[d]imidazol-2-yl)-1-phenylethyl)-3H-[1,2,3]triazolo [4,5-b] pyridin-5-amine] | 5.00 to 6.00 | 7.00 to 9.00
N#Cc1cc(-c2ccccc2)c2nc(C[C@H](c3ccccc3)c3cc(N)nc4[nH]nnc34)[nH]c2c1 [Example 254, (R)-2-(2-(5-amino-3H-[1,2,3]triazolo [4,5-b]pyridin-7-yl)-2-phenylethyl)-4-phenyl-1H-benzo[d]imidazole-6-carbonitrile] | 5.00 to 6.00 | 7.00 to 9.00
N#Cc1ccc(-c2ccc3nc(C[C@H](c4ccccc4)c4cc(N)nc5[nH]nnc45)[nH]c3c2)cc1 [Example 255, (R)-4-(2-(2-(5-amino-3H-[1,2,3]triazolo[4,5-b]pyridin-7-yl)-2-phenylethyl)-1H-benzo[d]imidazol-6-yl)benzonitrile] | 5.00 to 6.00 | 7.00 to 9.00
Cn1c(C[C@H](c2ccccc2)c2cc(N)nc3[nH]nnc23)nc2ccc(-c3ccccc3)cc21 [Example 257, (R)-7-(2-(1-methyl-6-phenyl-1H-benzo[d]imidazol-2-yl)-1-phenylethyl)-3H-[1,2,3]triazolo[4,5-b] pyridin-5-amine] | 5.00 to 6.00 | 6.00 to 7.00
Cn1c(C[C@H](c2ccccc2)c2cc(N)nc3[nH]nnc23)nc2cc(-c3ccccc3)ccc21 [Example 258, (R)-7-(2-(1-methyl-5-phenyl-1H-benzo[d]imidazol-2-yl)-1-phenylethyl)-3H-[1,2,3]triazolo[4,5-b] pyridin-5-amine] | 5.00 to 6.00 | 6.00 to 7.00
Nc1cc([C@H](Cc2nc3c(-c4ccccc4Cl)cccc3[nH]2)c2ccccc2)c2nn[nH]c2n1 [Example 260, (R)-7-(2-(4-(2-chlorophenyl)-1H-benzo[d]imidazol-2-yl)-1-phenylethyl)-3H-[1,2,3]triazolo [4,5-b]pyridin-5-amine] | 5.00 to 6.00 | 6.00 to 7.00
Cn1c(C[C@H](c2ccccc2)c2cc(N)nc3[nH]nnc23)nc2c(-c3ccccc3)cccc21 [Example 262, (R)-7-(2-(1-methyl-4-phenyl-1H-benzo[d]imidazol-2-yl)-1-phenylethyl)-3H-[1,2,3]triazolo [4,5-b]pyridin-5-amine] | 5.00 to 6.00 | 5.00 to 6.00

The remaining lines, values ahead:

pIC50 (myeloperoxidase [1]) | pIC50 (myeloperoxidase [2]) | SMILES
6.00 to 7.00 | 7.00 to 9.00 | Nc1cc([C@H](Cc2nc3c(-c4ccccc4)c(F)c(F)cc3[nH]2)c2ccccc2)c2nn[nH]c2n1 [Example 246, (R)-7-(2-(5,6-difluoro-4-phenyl-1H-benzo [d]imidazol-2-yl)-1-phenylethyl)-3H-[1,2,3]triazolo[4,5-b] pyridin-5-amine]
6.00 to 7.00 | 7.00 to 9.00 | Nc1cc([C@H](Cc2nc3c(-c4cccc(Cl)c4)cccc3[nH]2)c2ccccc2)c2nn[nH]c2n1 [Example 247, (R)-7-(2-(4-(3-chlorophenyl)-1H-benzo[d]imidazol-2-yl)-1-phenylethyl)-3H-[1,2,3]triazolo [4,5-b]pyridin-5-amine]
6.00 to 7.00 | 7.00 to 9.00 | Nc1cc([C@H](Cc2nc3c(-c4ccccc4)cc(C(F)(F)F)cc3[nH]2)c2ccccc2)c2nn[nH]c2n1 [Example 248, (R)-7-(1-phenyl-2-(4-phenyl-6-(trifluoromethyl)-1H-benzo [d]imidazol-2-yl)ethyl)-3H-[1,2,3] triazolo[4,5-b] pyridin-5-amine]
6.00 to 7.00 | 7.00 to 9.00 | NC(=O)c1ccc(-c2cccc3[nH]c(C[C@H](c4ccccc4)c4cc(N)nc5[nH]nnc45)nc23)cc1 [Example 249, (R)-4-(2-(2-(5-amino-3H-[1,2,3]triazolo [4,5-b]pyridin-7-yl)-2-phenylethyl)-1H-benzo[d]imidazol-4-yl)benzamide]
6.00 to 7.00 | 7.00 to 9.00 | Nc1cc([C@H](Cc2nc3ccc(-c4ccc(Cl)cc4)cc3[nH]2)c2ccccc2)c2nn[nH]c2n1 [Example 250]
5.00 to 6.00 | 7.00 to 9.00 | Nc1cc([C@H](Cc2nc3c(-c4cccc(C5CC5)c4)cccc3[nH]2)c2ccccc2)c2nn[nH]c2n1 [Example 251, (R)-7-(2-(4-(3-cyclopropylphenyl)-1H-benzo[d]imidazol-2-yl)-1-phenylethyl)-3H-[1,2,3]triazolo [4,5-b]pyridin-5-amine]
6.00 to 7.00 | 6.00 to 7.00 | Nc1cc([C@H](Cc2nc3ccc(-c4ccccc4)cc3[nH]2)c2ccccc2)c2nn[nH]c2n1 [Example 256, (R)-7-(1-phenyl-2-(6-phenyl-1H-benzo[d]imidazol-2-yl)ethyl)-3H-[1,2,3]triazolo [4,5-b]pyridin-5-amine]
6.00 to 7.00 | 6.00 to 7.00 | Nc1cc([C@H](Cc2nc3cc(F)c(-c4ccccc4)cc3[nH]2)c2ccccc2)c2nn[nH]c2n1 [Example 259, (R)-7-(2-(5-fluoro-6-phenyl-1H-benzo[d]imidazol-2-yl)-1-phenylethyl)-3H-[1,2,3]triazolo[4,5-b] pyridin-5-amine]
6.00 to 7.00 | 5.00 to 6.00 | Nc1cc([C@H](Cc2nc3ccccc3[nH]2)c2ccccc2)c2nn[nH]c2n1 [Example 261, (R)-7-(2-(1H-benzo [d]imidazol-2-yl)-1-phenylethyl)-3H-[1,2,3]triazolo[4,5-b] pyridin-5-amine]
6.00 to 7.00 | 6.00 to 7.00 | Nc1cc([C@H](Cc2nc3ccc(Br)cc3s2)c2ccccc2)c2nn[nH]c2n1 [Example 263, (R)-7-(2-(6-bromobenzo [d]thiazol-2-yl)-1-phenylethyl)-3H-[1,2,3]triazolo[4,5-b] pyridin-5-amine]
